Columns and labels:
IL-6 = experiment: UVB-mediated induction of IL-6 in pterygium epithelial cells, sandwich immunoassay of supernatants; type: cell-based, human; conditions: for IL-6 production post-radiation (effect in words): 10 μM PD98059, 1 μM SB202190, 1 μM SB203580, 1 μM hydrocortisone
Experimental: (§1) Pterygium-derived epithelial cells (PEC) were seeded at 1×10^6 cells in 100 mm tissue culture dishes (Corning, N.Y.) or at a density of 1.5×10^5 cells per well in 6-well plates (Nunc, Denmark) and grown in the presence of 10% FBS/EMEM. Once cells reached semi-confluence, the medium was aspirated, cells washed three times with sterile PBS, and left in serum-free medium for 16 hrs as previously described (Di Girolamo N., et al. Prog Retin Eye Res. 2004; 23:195-228), (Di Girolamo N., et al., Invest Opthalmol Vis Sci. 2000; 41:671-679), (Di Girolamo N., et al., Invest Opthalmol Vis Sci. 2002; 43:3430-3437), (Nolan T, et al., Am J Pathol. 2003; 162:567-574), (Di Girolamo., et al., Invest Ophthalmol Vis Sci. 2003; 44:4705-4714). In some experiments, cells were pre-incubated with selective inhibitors of ERK1/2, JNK, and p38 MAPKs (Calbiochem, Calif.). These included 10 μM PD98059, 1 μM SB202190, and 1 μM SB203580, respectively. In addition, 1 μM hydrocortisone (Sigma, St Louis, […].) was added to some cells as a broad-spectrum negative regulator of cytokine production.
(§2) To determine whether surface receptors were involved in transmitting the UVB signal, some cells were pre-incubated for 1 hr with 0.1 μM PD153035 (Calbiochem), an inhibitor of the tyrosine kinase activity of the EGFR or with 0.1 μM AG1295 (Calbiochem) an inhibitor of the tyrosine kinase activity of the PDGFR. While in other experiments, cells were pre-treated with RA (0-0.1 μM; Sigma) or IFN-α (0-15,000 U; PBL Biomedical Laboratories, Piscataway, N.J.). This medium was replaced with PBS and monolayers irradiated with 20 mJ/cm^2 of UVB using FL20SE bulbs (Philips, Sydney, Australia) as previously reported (Di Girolamo N., et al. Prog Retin Eye Res. 2004; 23:195-228), (Di Girolamo N., et al., Invest Opthalmol Vis Sci. 2002; 43:3430-3437), (Nolan T, et al., Am J Pathol. 2003; 162:567-574), (Di Girolamo., et al., Invest Ophthalmol Vis Sci. 2003; 44:4705-4714). UVB light intensity was monitored and calibrated prior to each experiment with the aid of a radiometer IL1400A (International Light, Newburyport, Mass.). After each exposure, PEC were rinsed once with PBS and placed in fresh serum-free medium with the respective compounds, then incubated for a further 48 hrs. Supernatants were collected, cleared of any cell debris by centrifugation, and stored frozen in small aliquots at −70° C. The compounds used in these experiments were non-toxic at all doses tested.
(§3) Human IL-6, IL-8, and VEGF (Quantikine™; R&D Systems, Minneapoli, Minn.) were quantified using sandwich immunoassays. Cytokines in supernatants from control (mock irradiated), or UVB-exposed PEC were captured on antibody-coated 96-well plates, and detection performed precisely as directed by the manufacturer. The optical density of the reaction product was read at the appropriate wavelength using a microplate reader (Spectramax™ Plus, Molecular Devices, Sunnyvale, Calif.).
(§4) Cytokine levels in the culture supernatants were expressed as mean±standard deviation. Difference in cytokine level between control and UV treated cells was assessed by one-way analysis of variance, followed by the Newman-Keuls test for multiple comparisons of treatment groups with the control group. A commercial software package (Prism; GraphPad Software, San Diego, Calif.) was used for analysis.

IL-8 = experiment: UVB-mediated induction of IL-8 in pterygium epithelial cells, sandwich immunoassay of supernatants; type: cell-based, human; conditions: for IL-8 levels / IL-8 production post-radiation (effect in words): 20 mJ/cm^2 UVB; for IL-8 levels: supernatant after 48 hrs, UVB alone 166.6±22.5 pg/ml; for IL-8 production post-radiation (effect in words): 10 μM PD98059, 1 μM SB202190, 1 μM SB203580, 1 μM hydrocortisone
Experimental: as §1, §2, §3, §4

VEGF = experiment: UVB-mediated induction of VEGF in pterygium epithelial cells, sandwich immunoassay of supernatants; type: cell-based, human; conditions: for VEGF production: PEC pre-incubated 1 hr with 0.1 μM inhibitor, supernatant after 48 hrs, UVB alone 166.5±11.0 pg/ml; for VEGF production / VEGF production post-radiation (effect in words): 20 mJ/cm^2 UVB; for VEGF production post-radiation (effect in words): 10 μM PD98059, 1 μM SB202190, 1 μM SB203580, 1 μM hydrocortisone
Experimental: as §1, §2, §3, §4

[1] = topical ocular use; cited from earlier work
pterygium = conditions: retrospective study of 164 patients, pterygium surgery with associated treatment; cited from earlier work
[2] = PEC, single dose of UVB, several concentrations: RA 0-0.1 μM, IFN-α 0-15,000 U

Row | Compound | IL-6 production post-radiation (effect in words) (IL-6; PEC, 20 mJ/cm^2 UVB) | IL-8 production post-radiation (effect in words) (IL-8; PEC) | VEGF production post-radiation (effect in words) (VEGF; PEC) | also measured
1 | Cc1cc2ncc(-c3ccccc3)nc2cc1C [AG1295] | – | – | – | IL-6 levels (IL-6; PEC pre-incubated 1 hr with 0.1 μM inhibitor, 20 mJ/cm^2 UVB, supernatant after 48 hrs, UVB alone 356.2±32.1): 217 ± 42 pg/mL; IL-8 levels (IL-8; PEC pre-incubated 1 hr with 0.1 μM PD153035 (EGFR inhibitor) or 0.1 μM AG1295 (PDGFR inhibitor)): 174 ± 60.3 pg/mL; VEGF production (VEGF): 132.7 ± 8.0 pg/mL
2 | C[C@]12CCC(=O)C=C1CC[C@@H]1[C@@H]2[C@@H](O)C[C@@]2(C)[C@H]1CC[C@]2(O)C(=O)CO [Hydrocortisone, hydrocortisone] | near control levels | near control levels | near control levels | –
3 | COc1cccc(-c2cc(=O)c3ccccc3o2)c1N [PD98059] | significantly abrogated | significantly abrogated | only partially, but significantly reduced | –
4 | COc1cc2ncnc(Nc3cccc(Br)c3)c2cc1OC [PD153035] | – | – | – | IL-8 levels (IL-8; PEC pre-incubated 1 hr with 0.1 μM inhibitor): 74.4 ± 23.6 pg/mL; VEGF production (VEGF): 109.1 ± 1.5 pg/mL
5 | Oc1ccc(-c2nc(-c3ccncc3)c(-c3ccc(F)cc3)[nH]2)cc1 [SB202190] | significantly abrogated | significantly abrogated | only partially, but significantly reduced | –
6 | C[S+]([O-])c1ccc(-c2nc(-c3ccncc3)c(-c3ccc(F)cc3)[nH]2)cc1 (stereo not shown) [SB203580] | significantly abrogated | significantly abrogated | only partially, but significantly reduced | –
7 | CO[C@@]12[C@H](COC(N)=O)C3=C(C(=O)C(C)=C(N)C3=O)N1C[C@@H]1N[C@@H]12 [mitomyacin C] | – | – | – | complications [1]: corneoscleral melting, cataract and secondary glaucoma; pterygium regrowth (pterygium): 8.74%
8 | IFN-α | – | – | – | IL-6 protein production (effect in words) (IL-6; [2]): dose-dependently inhibited; IL-8 protein production (effect in words) (IL-8; [2]): dose-dependently inhibited; UVB-mediated induction of VEGF (effect in words) (VEGF; [2]): no significant inhibitory effect
